Key:
[1] = system: aryl hydrocarbon receptor (AHR) signaling; assay: Cypla1 mRNA (AHR signaling) in ileum of mice with experimental NEC, qPCR; type: in vivo, mouse; settings: 4 days, vs vehicle
Method: (§1) Necrotizing enterocolitis (NEC) was induced in 7-day-old mouse pups by gavage feeding and hypoxia exposure for 4 days in presence of abacavir, lansoprazole, tranilast and raberprazole. The ileum was harvested at the end of the experiment and the mRNA expression of target genes was analyzed by qPCR.
Referring now to FIG. 1, the mRNA expression of Cypla1, the down-stream gene of aryl hydrocarbon receptor (AHR) signaling, was quantified in the ileum of experimental NEC models. Data are represented as mean±SEM; *p<0.05 between indicated groups; each dot represents an individual mouse.

mice with NEC = assay: mRNA of proinflammatory cytokines and NEC markers in ileum of mice with experimental NEC, qPCR; type: in vivo, mouse; settings: vs vehicle-treated group
Method: as §1
Referring now to FIG. 2, the mRNA expression of pro-inflammatory cytokine tumor necrosis factor alpha (Tnf) was quantified in the ileum of experimental NEC models. Data are represented as mean±SEM; *p<0.05 between indicated groups; each dot represents an individual mouse.
Referring now to FIG. 3, the mRNA expression of pro-inflammatory Interleukin-6 (IL-6) was quantified in the ileum of experimental NEC models. Data are represented as mean±SEM; *p<0.05 between indicated groups; each dot represents an individual mouse.
Referring now to FIG. 4, the mRNA expression of NEC marker S100 calcium binding protein A8 (S100a8) was quantified in the ileum of experimental NEC models. Data are represented as mean±SEM; *p<0.05 between indicated groups; each dot represents an individual mouse.
Referring now to FIG. 5, the mRNA expression of NEC marker lipocalin 2 (Lcn2) was quantified in the ileum of experimental NEC models. Data are represented as mean±SEM; *p<0.05 between indicated groups; each dot represents an individual mouse.
Referring now to FIG. 6, the mRNA expression of NEC marker intestinal fatty acid-binding protein (iFabp) was quantified in the ileum of experimental NEC models. Data are represented as mean±SEM; *p<0.05 between indicated groups; each dot represents an individual mouse.

| Compound | mRNA expression of Cypla1, the down-stream gene of AHR signaling [1] | mRNA expression of NEC marker S100a8 (mice with NEC) | mRNA expression of NEC marker iFabp (mice with NEC) | mRNA expression of Interleukin-6 (IL-6) (mice with NEC) | mRNA expression of NEC marker lipocalin 2 (Lcn2) (mice with NEC) | mRNA expression of tumor necrosis factor alpha (Tnf) (mice with NEC) |
| --- | --- | --- | --- | --- | --- | --- |
| COCCCOc1ccnc(C[S+]([O-])c2nc3ccccc3[nH]2)c1C (centres unmarked) [raberprazole] | nor raberprazole, activated AHR signaling pathway | significantly attenuated S100a8 expression | significantly attenuated iFabp expression | – | – | – |
| Cc1c(OCC(F)(F)F)ccnc1C[S+]([O-])c1nc2ccccc2[nH]1 (centres unmarked) [lansoprazole] | activated AHR signaling pathway | significantly attenuated S100a8 expression | significantly attenuated iFabp expression | significantly attenuated IL-6 expression | significantly attenuated Lcn2 expression | significantly attenuated Tnf expression |
| Nc1nc(NC2CC2)c2ncn([C@H]3C=C[C@@H](CO)C3)c2n1 [abacavir] | activated AHR signaling pathway | significantly attenuated S100a8 expression | – | significantly attenuated IL-6 expression | significantly attenuated Lcn2 expression | significantly attenuated Tnf expression |

Source: patent US11458141B2, “Aryl hydrocarbon receptor (AhR) agonists for the prevention and treatment of inflammatory disorders” (The Johns Hopkins University, priority 2017, dated 2022)
